≈ marks a conversion by molar mass, not a printed value.
Legend:
[1] = system: Mycobacterium tuberculosis H37Rv; assay: Minimum inhibitory concentration for Mycobacterium tuberculosis H37Rv strain (Table A); format: cell-based; conditions: for MIC / MIC50: Mycobacterium tuberculosis, Strain Mtb H37Rv
[2] = system: Mtb H37Rv; assay: microbe, parasite or virus in culture; format: cell-based; conditions: Mycobacterium tuberculosis, MABA
[3] = target: Mtb Ag85C (Mycobacterium tuberculosis, UniProt P9WQN9); assay: Fluorometric resorufin butyrate/trehalose assay of Mtb Ag85C activity; format: biochemical; conditions: for remaining activity at 5 µM: 5 μM compound, 40 min of incubation, normalized to control without inhibitor, read-out: Percent of Mtb Ag85C activity remaining
[4] = system: MRHF cells treated with TcdB and TcdA; assay: Cytotoxicity assay: inhibition of toxin-induced cell rounding; format: cell-based, human; conditions: 0.05 mL of 40 μM compound mixed with 0.05 mL TcdB and TcdA solution, 30 min; MRHF cells 2 h
Protocol: Cytotoxicity data was collected using a qualitative assay designed by Quidel to detect TcdB and TcdA presence in patients' stool samples. A solution containing TcdB and TcdA (0.05 mL) was mixed with 0.05 mL of a 40 μM solution of compounds of example 1-15 individually. These solutions were then incubated together for thirty minutes at room temperature. Then the 0.1 ml solutions were used to treat MRHF cells in a twenty four well plate. The cells were then incubated at thirty degrees Celsius under CO2 for two hours. Then, the cells were imaged using a 20× objective on an inverted microscope. […] Thus, compound 506o provides cytoprotection against Clostridium difficile toxins TcdB and TcdA.

[5] = target: Ag85C (Mycobacterium tuberculosis, UniProt P9WQN9); assay: Activity of Ag85C modified by compounds over time (FIGS. 6A-6B); format: biochemical
Description: FIGS. 6A-6B: Activity of Ag85C modified by compounds 506e (FIG. 6A) and 506f (FIG. 6B) over time.
FIGS. 6A-6B show the activity of Ag85C modified by compounds 506e and 506f over time.

Sequence of Mtb Ag85C (P9WQN9 46-340 limits assumed): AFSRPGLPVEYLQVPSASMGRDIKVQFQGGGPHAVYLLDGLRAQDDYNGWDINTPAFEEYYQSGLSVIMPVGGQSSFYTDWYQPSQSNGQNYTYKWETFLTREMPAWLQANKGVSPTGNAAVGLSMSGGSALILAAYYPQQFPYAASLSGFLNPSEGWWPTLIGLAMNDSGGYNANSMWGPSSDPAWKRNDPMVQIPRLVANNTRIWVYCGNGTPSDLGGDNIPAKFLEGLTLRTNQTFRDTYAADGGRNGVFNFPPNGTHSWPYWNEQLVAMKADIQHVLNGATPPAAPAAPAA
Sequence of Ag85C (P9WQN9 46-340): as the sequence (P9WQN9 46-340 limits assumed) above

Row | SMILES | MIC [1] [µg/mL] | MIC50 [1] [µg/mL] | melting point [°C] | MIC [2] [µg/mL] | remaining activity at 5 µM [3] [%] | other results
1 | O=c1c2ccccc2[se]n1Cc1ccccc1 [Compound 506d, 2-benzylbenzo[d][1,2]selenazol-3(2H)-one] | 25 (≈ 86.7 µM) | 15 (≈ 52.2 µM) |  |  |  | 
2 | COc1ccc(Cn2[se]c3ccccc3c2=O)cc1 [Compound 506a, 2-(4-methoxybenzyl)benzo[d][1,2]selenazol-3(2H)-one] | 25 (≈ 78.6 µM) | 18.3 (≈ 57.6 µM) |  |  |  | 
3 | COc1ccccc1Cn1[se]c2ccccc2c1=O [Compound 506c, 2-(2-methoxybenzyl)benzo[d][1,2]selenazol-3(2H)-one] | 12.5 (≈ 39.3 µM) | 10.4 (≈ 32.6 µM) | 169 to 170 | 12.5 (≈ 39.3 µM) | 36 | MIC values against Mycobacterium tuberculosis compared with ebselen [1]: lower than ebselen
4 | O=c1c2ccccc2[se]n1-c1ccccn1 [Compound 506o, 2-(Pyridin-2-yl)benzo[d][1,2]selenazol-3(2H)-one] |  |  |  |  |  | Inhibition of cell rounding (cell appearance) [4]: more intermediate phenotype
5 | O=c1c2ccccc2[se]n1-c1ccccc1 [Ebselen, 2-phenyl-1,2-benzisoselenazol-3(2H)-one, reference compound] | 12.5 (≈ 45.6 µM) | 9.59 (≈ 35 µM) |  | 12.5 (≈ 45.6 µM) | 17 | Inhibition of cell rounding (cell appearance) [4]: maintained their string-like appearance
6 | COc1ccc(-n2[se]c3ccccc3c2=O)cc1 [Compound 506b, 2-(4-methoxyphenyl)benzo[d][1,2]selenazol-3(2H)-one] | 25 (≈ 82.2 µM) | 19.3 (≈ 63.4 µM) |  |  |  | 
7 | O=c1c2ccccc2[se]n1C12CC3CC(CC(C3)C1)C2 |  |  | 215 to 217 |  |  | 
8 | O=C(CCCCC1SC[C@@H]2NC(=O)N[C@H]12)NCCOCCOCCOCCNC(=O)CCC(=O)N1Cc2ccccc2-c2nnn(-c3ccc(-n4[se]c5ccccc5c4=O)cc3)c2-c2ccccc21 (stereo partly drawn) [Compound 210, N-(13,16-dioxo-16-(3-(4-(3-oxobenzo[d][1,2]selenazol-2(3H)-yl)phenyl)-3,9-dihydro-8H-dibenzo[b,f][1,2,3]triazolo[4,5-d]azocin-8-yl)-3,6,9-trioxa-12-azahexadecyl)-5-((3aS,6aR)-2-oxohexahydro-1H-thieno[3,4-d]imidazol-4-yl)pentanamide] |  |  |  | ≥ 50 | 61 | 
9 | C=CCn1[se]c2ccccc2c1=O [Compound 506e, 2-allylbenzo[d][1,2]selenazol-3(2H)-one] | 12.5 (≈ 52.5 µM) | 10.4 (≈ 43.5 µM) |  | 12.5 (≈ 52.5 µM) | 15 | MIC values against Mycobacterium tuberculosis compared with ebselen [1]: lower than ebselen; Activity of Ag85C modified by compound over time [5]: decrease in the activity of Ag85C; IC50 ([3]; 15 min of incubation, read-out: Apparent IC50 (appIC50) against Mtb Ag85C): 8.8 µM
10 | [N-]=[N+]=Nc1ccc(-n2[se]c3ccccc3c2=O)cc1 |  |  | 169 to 170 |  |  | 
11 | [N-]=[N+]=Nc1ccc(NC(=O)c2ccccc2[Se]C#Cc2ccccc2)cc1 [Compound 208, N-(4-Azidophenyl)-2-((phenylethynyl)selanyl)-benzamide] |  |  |  | ≥ 50 |  | 
12 | O=c1c2ccccc2[se]n1C1CCCCC1 [Compound 506m, 2-Cyclohexylbenzo[d][1,2]selenazol-3(2H)-one] |  |  |  |  | 44 | 
13 | CC(C)Cn1[se]c2ccccc2c1=O |  |  | 114 to 116 |  |  | 
14 | O=c1c2ccccc2[se]n1C1CCCC1 [Compound 506l, 2-Cyclopentylbenzo[d][1,2]selenazol-3(2H)-one] |  |  | 119 to 120 |  | 40 | 
15 | CC(C)(C)n1[se]c2ccccc2c1=O |  |  | 137 to 139 |  |  | 
16 | O=c1c2ccccc2[se]n1CC1CCCCC1 [Compound 506f, 2-(cyclohexylmethyl)benzo[d][1,2]selenazol-3(2H)-one] | 50 (≈ 170 µM) | 36.2 (≈ 123 µM) |  | ≥ 50 | 30 | Activity of Ag85C modified by compound over time [5]: decrease in the activity of Ag85C

From patent US11053236B2, “Substituted isoselenazolone anti-infective, anti-inflammatory, anti-cancer, cytoprotective, neuroprotective, and anti-oxidant agents” (priority 2016, dated 2021)
